The nature of data set [1]: Solubility of the starting glycopeptide antibiotic (nucleus) in methanol in the presence of the copper salt, with pH. The data set is classed as physicochemical. The note with it: stirred 15 min; for pH: pH after addition of glycopeptide nucleus (0.26 mmol) to copper salt in 50 mL methanol; for nucleus solubility in presence of salt: Glycopeptide nucleus (0.55 g, 0.26 mmol) added to copper salt (0.165 mmol) in 50 mL methanol. As for the experimental part:
(§1) The same copper salts were further evaluated for their solubility in methanol and for the solubility of the starting glycopeptide antibiotic in their presence. The procedure was as follows: the copper salt (0.165 mmol) was added to 50 mL methanol and stirred at ambient temperature for 15 min. Solubility data was recorded as well as the pH. […] Solubility and pH data was recorded.

Data set [2] is described as follows: Solubility of copper salts in methanol, with pH. It is filed as physicochemical. The note with it: for pH: pH of copper salt (0.165 mmol) in 50 mL methanol after 15 min stirring, before nucleus is added; for Salt Solubility in MeOH: copper salt (0.165 mmol) in 50 mL methanol, stirred at ambient temperature for 15 min. As to the method:
as §1

“Also recorded” adds a separate entry of the source.

With `CCCCC(CC)C(=O)[O-].CCCCC(CC)C(=O)[O-].[Cu+2]` (centres unmarked) [Cu(2-ethylhexanoate)2], the values for the pH in data set [1] and in data set [2] were approximately 6.7 and 6.5, respectively.

Regarding `O=C([O-])C(F)(F)F.O=C([O-])C(F)(F)F.[Cu+2]` [Cu(O2CCF3)2], in data set [1], the “nucleus solubility in presence of salt” value is listed as “soluble, clear purple” and the pH turned out to be 6.2. In data set [2], the “Salt Solubility in MeOH” value was “soluble, clear lite blue” and the pH was determined as 4.4.

As to `CC(=O)[O-].CC(=O)[O-].[Cu+2]` [Cu(OAc)2], the pH in data set [1] is given as approximately 6.7; in data set [2] it was 6.5.

For the compound `[Cu+2].[OH-].[OH-]` [Cu(OH)2], in data set [1], the “nucleus solubility in presence of salt” value is listed as “slightly, cloudy lite blue” and the pH is 7.0. In data set [2], the “Salt Solubility in MeOH” value is given as “nearly insoluble; also recorded: low, cloudy lite blue soln” and the pH stood at 6.2.

Take `O=C([O-])CCCC1CCCCC1.O=C([O-])CCCC1CCCCC1.[Cu+2]` [Cu(cyclohexanebutyrate)2]: in data set [1], the “nucleus solubility in presence of salt” value is “complete dissolution; also recorded: soluble, clear purple” and the pH is reported as approximately 6.7. Besides, in data set [2], the “Salt Solubility in MeOH” value was “faint cloudiness, lite blue-green” and the pH is reported as 6.0.

Regarding `[Br][Cu][Br]` [CuBr2], in data set [1], the “nucleus solubility in presence of salt” value is “soluble, clear purple” and the pH is 5.9. In addition, in data set [2], the “Salt Solubility in MeOH” value is “soluble, clear yellow” and the pH turned out to be 2.8.

Regarding `[Cl][Cu][Cl]` [CuCl2], in data set [1], the “nucleus solubility in presence of salt” value is reported as “slightly, cloudy purple” and the pH turned out to be 6.6. In addition, in data set [2], the “Salt Solubility in MeOH” value is recorded as “soluble, clear colorless” and the pH amounted to 3.2.

In the case of `[F][Cu][F]` [CuF2], in data set [1], the “nucleus solubility in presence of salt” value is “slightly, cloudy pink” and the pH was 7.0. Also, in data set [2], the “Salt Solubility in MeOH” value is given as “nearly insoluble; also recorded: low, cloudy white soln” and the pH came out at 5.9.

In the case of `O.O.O.O.O.O=S(=O)([O-])[O-].[Cu+2]` [CuSO4·5H2O], in data set [1], the “nucleus solubility in presence of salt” value is reported as “slightly, cloudy purple” and the pH is on record as 6.2. In data set [2], the “Salt Solubility in MeOH” value is “soluble, clear colorless” and the pH worked out at 3.7.

(Values after patent EP0845478B1, “Reductive alkylation of glycopeptide antibiotics” (ELI LILLY AND COMPANY, priority 1996, dated 1998).)
